Common to all, as to assay: Test A pre/postemergence
Holding throughout (assay type): in vivo

Experiment [1] relates to redroot pigweed (Amaranthus retroflexus). The settings on record: for pest or weed control at 125 g/ha / pest or weed control at 500 g/ha: Amaranthus retroflexus, 240 h, read-out: Plant response rating, Pigweed. The method, boiled down: (§1)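 Soil: loam blended with sand. Formulation: non-phytotoxic solvent mixture with surfactant. Timing: preemergence soil spray plus concurrent postemergence spray (plants 2–10 cm, 1–2 leaves). Readout: visual injury versus untreated controls at ~10 days, 0–100.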

For experiment [2], the system named is crabgrass (Digitaria sanguinalis). The settings on record: for pest or weed control at 125 g/ha / pest or weed control at 500 g/ha: Digitaria sanguinalis, 240 h, read-out: Plant response rating, Crabgrass. In outline:
as §1

Experiment [3] concerns velvetleaf (Abutilon theophrasti). The settings on record: for pest or weed control at 125 g/ha / pest or weed control at 500 g/ha: Abutilon theophrasti, 240 h, read-out: Plant response rating, Velvetleaf. The method, boiled down: as §1
Experiment [4] has as its system barnyardgrass (Echinochloa crus-galli). The settings on record: for pest or weed control at 125 g/ha / pest or weed control at 500 g/ha: Echinochloa crus-galli, 240 h, read-out: Plant response rating, Barnyardgrass. In outline:
as §1

In experiment [5] the test system is morningglory (Ipomoea spp.). The settings on record: for pest or weed control at 125 g/ha / pest or weed control at 500 g/ha: Ipomoea, 240 h, read-out: Plant response rating, Morningglory. The method, boiled down:
as §1

For experiment [6], the system named is giant foxtail (Setaria faberi). To be noted: for pest or weed control at 125 g/ha / pest or weed control at 500 g/ha: Setaria faberi, 240 h, read-out: Plant response rating, Foxtail, Giant. In outline: as §1
[7] abbreviates: post-emergence, Postemergence, 125 g ai/ha, 0 to 100 scale (0 no effect, 100 complete control).
The mark [8] stands for this setting: post-emergence, Postemergence, 500 g ai/ha, 0 to 100 scale (0 no effect, 100 complete control).
Setting [9] is: pre-emergence, Preemergence, 125 g ai/ha, 0 to 100 scale where 0 is no effect and 100 is complete control, approximately ten days.
Where [10] appears, read: pre-emergence, Preemergence, 500 g ai/ha, 0 to 100 scale where 0 is no effect and 100 is complete control, approximately ten days.
[11] abbreviates: Postemergence, 125 g ai/ha, 0 to 100 scale (0 no effect, 100 complete control).
The mark [12] stands for this setting: Postemergence, 500 g ai/ha, 0 to 100 scale (0 no effect, 100 complete control).
The mark [13] stands for this setting: Preemergence, 125 g ai/ha, 0 to 100 scale where 0 is no effect and 100 is complete control, approximately ten days.
[14] abbreviates: Preemergence, 500 g ai/ha, 0 to 100 scale where 0 is no effect and 100 is complete control, approximately ten days.

Like-named read-outs stand apart in the source and are kept apart here.

With `COC(=O)c1nc(-c2ccc(Cl)cc2)nc(N)c1Cl` [Compound 58, methyl 6-amino-5-chloro-2-(4-chlorophenyl)-4-pyrimidinecarboxylate], the pest or weed control at 125 g/ha in experiment [1] (setting [7]) was determined as 70%; in experiment [1] (setting [9]), 0%; in experiment [2] (setting [7]) it was 5%; in experiment [2] (setting [9]) it was 0%; in experiment [3] (setting [7]), 70%; in experiment [3] (setting [9]) it was 0%. For the same compound, the pest or weed control at 125 g/ha stood at 5% in experiment [4] (setting [7]); 0% in experiment [4] (setting [9]); 55% in experiment [5] (setting [7]); 10% in experiment [5] (setting [9]); 0% in experiment [6] (setting [7]); 0% in experiment [6] (setting [9]). In addition, the pest or weed control at 500 g/ha in experiment [1] (setting [8]) was determined as 80%; in experiment [1] (setting [10]) it was 60%; in experiment [2] (setting [8]), 10%; in experiment [2] (setting [10]), 0%; in experiment [3] (setting [8]), 85%; in experiment [3] (setting [10]), 40%. Besides, the pest or weed control at 500 g/ha in experiment [4] (setting [8]) turned out to be 10%; in experiment [4] (setting [10]), 0%; in experiment [5] (setting [8]), 80%; in experiment [5] (setting [10]), 25%; in experiment [6] (setting [8]) it was 50%; in experiment [6] (setting [10]) it was 10%.
In the case of `Nc1nc(C2CC2)nc(C(=O)[O-])c1Br.[Na+]` [Compound 113, 6-amino-5-bromo-2-cyclopropyl-4-pyrimidinecarboxylic acid monosodium salt], the pest or weed control at 125 g/ha in experiment [1] (setting [7]) came to 80%; in experiment [1] (setting [9]) it was 80%; in experiment [2] (setting [7]), 25%; in experiment [2] (setting [9]), 15%; in experiment [3] (setting [7]), 80%; in experiment [3] (setting [9]), 65%. Besides, the pest or weed control at 125 g/ha was 55% in experiment [4] (setting [7]); 25% in experiment [4] (setting [9]); 90% in experiment [5] (setting [7]); 90% in experiment [5] (setting [9]); 65% in experiment [6] (setting [7]); 15% in experiment [6] (setting [9]). Moreover, the pest or weed control at 500 g/ha in experiment [1] (setting [8]) was 90%; in experiment [1] (setting [10]) it was 90%; in experiment [2] (setting [8]), 55%; in experiment [2] (setting [10]), 70%; in experiment [3] (setting [8]) it was 95%; in experiment [3] (setting [10]) it was 95%. Besides, the pest or weed control at 500 g/ha in experiment [4] (setting [8]) worked out at 90%; in experiment [4] (setting [10]), 80%; in experiment [5] (setting [8]), 90%; in experiment [5] (setting [10]), 100%; in experiment [6] (setting [8]), 85%; in experiment [6] (setting [10]), 80%.
As to `COC(=O)c1nc(-c2ccc(I)cc2)nc(N)c1Br` [Compound 128], the “Plant response rating, Pigweed” value in experiment [1] (setting [11]) was 55; in experiment [1] (setting [12]) it was 75; in experiment [1] (setting [13]), 0; in experiment [1] (setting [14]), 0. The “Plant response rating, Crabgrass” value in experiment [2] (setting [11]), in experiment [2] (setting [12]), in experiment [2] (setting [13]) and in experiment [2] (setting [14]) was 0 in each case. The “Plant response rating, Velvetleaf” value in experiment [3] (setting [11]) was found to be 65; in experiment [3] (setting [12]), 80; in experiment [3] (setting [13]) it was 0; in experiment [3] (setting [14]) it was 0. For the same compound, the “Plant response rating, Barnyardgrass” value in experiment [4] (setting [11]), in experiment [4] (setting [12]), in experiment [4] (setting [13]) and in experiment [4] (setting [14]) was 0 in each case. Besides, the “Plant response rating, Morningglory” value in experiment [5] (setting [11]) was 55; in experiment [5] (setting [12]) it was 80; in experiment [5] (setting [13]), 0; in experiment [5] (setting [14]) it was 0. Besides, the “Plant response rating, Foxtail, Giant” value in experiment [6] (setting [11]), in experiment [6] (setting [12]), in experiment [6] (setting [13]) and in experiment [6] (setting [14]) was 0 in each case.
`Cc1ccc(-c2nc(N)c(Cl)c(C(=O)O)n2)cc1` [Compound 91]: the “Plant response rating, Pigweed” value in experiment [1] (setting [11]) is 55; in experiment [1] (setting [12]) it was 100; in experiment [1] (setting [13]), 100; in experiment [1] (setting [14]), 100. The “Plant response rating, Crabgrass” value in experiment [2] (setting [11]) worked out at 5; in experiment [2] (setting [12]), 15; in experiment [2] (setting [13]), 25; in experiment [2] (setting [14]) it was 75. The “Plant response rating, Velvetleaf” value in experiment [3] (setting [11]) is listed as 75; in experiment [3] (setting [12]), 95; in experiment [3] (setting [13]), 80; in experiment [3] (setting [14]), 100. For the same compound, the “Plant response rating, Barnyardgrass” value in experiment [4] (setting [11]) turned out to be 75; in experiment [4] (setting [12]), 90; in experiment [4] (setting [13]) it was 5; in experiment [4] (setting [14]) it was 80. The “Plant response rating, Morningglory” value in experiment [5] (setting [11]) is recorded as 5; in experiment [5] (setting [12]) it was 30; in experiment [5] (setting [13]) it was 5; in experiment [5] (setting [14]), 50. For the same compound, the “Plant response rating, Foxtail, Giant” value was found to be 5 in experiment [6] (setting [11]), 75 in experiment [6] (setting [12]), 0 in experiment [6] (setting [13]) and 25 in experiment [6] (setting [14]).

These data come from US8802597B2, “Herbicidal pyrimidines” (E I du Pont de Nemours and Company, priority 2003, dated 2014).
